What was measured:
Experiment in all cases: relative viability (nuclei count vs DMSO), 5 days (fraction); higher = more cells survive
[1] = compound: CS(=O)(=O)N1CCN(Cc2cc3nc(-c4cccc5[nH]ncc45)nc(N4CCOCC4)c3s2)CC1 [Pictilisib] + CC(C)C[C@H](NC(=O)[C@H](Cc1ccccc1)NC(=O)c1cnccn1)B(O)O [Bortezomib] (partner 0.002 µM)
Method in brief: (§1)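 A single step with final 0.05% Triton X-100, 1% formaldehyde and 1 ug/ml Hoechst fixed the cells and stained nuclei 5 days after treatment. Lung cancer cell lines in 1536-well plates had been treated by pin tool the day after seeding with one drug alone or a fixed anchor-drug dose plus five library-drug doses (not always all listed) in √10 steps, and nuclei were counted on 4× images. Relative viability is the ratio of nuclei in treated wells to nuclei in vehicle wells, taken as the median of duplicate plates.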

[2] = compound: CS(=O)(=O)N1CCN(Cc2cc3nc(-c4cccc5[nH]ncc45)nc(N4CCOCC4)c3s2)CC1 [Pictilisib] + CS(=O)(=O)CCNCc1ccc(-c2ccc3ncnc(Nc4ccc(OCc5cccc(F)c5)c(Cl)c4)c3c2)o1 [Lapatinib] (partner 2 µM)
Method in brief: as §1

[3] = compound: NC1(c2ccc(-c3nc4ccn5c(=O)[nH]nc5c4cc3-c3ccccc3)cc2)CCC1 [MK-2206] + CCNC(=O)c1noc(-c2cc(C(C)C)c(O)cc2O)c1-c1ccc(CN2CCOCC2)cc1 [Luminespib] (partner 0.01 µM)
Method in brief: as §1

[4] = compound: NC1(c2ccc(-c3nc4ccn5c(=O)[nH]nc5c4cc3-c3ccccc3)cc2)CCC1 [MK-2206] + Nc1nc2[nH]cc(CCc3ccc(C(=O)N[C@@H](CCC(=O)O)C(=O)O)cc3)c2c(=O)[nH]1 [Pemetrexed] (partner 0.2 µM)
Method in brief: as §1

[5] = compound: CS(=O)(=O)N1CCN(Cc2cc3nc(-c4cccc5[nH]ncc45)nc(N4CCOCC4)c3s2)CC1 [Pictilisib] + Nc1nc2[nH]cc(CCc3ccc(C(=O)N[C@@H](CCC(=O)O)C(=O)O)cc3)c2c(=O)[nH]1 [Pemetrexed] (partner 0.2 µM)
Method in brief: as §1

Row | Cell Line | relative viability ([1]; first compound 0.02 µM) | relative viability ([1]; first compound 0.06325 µM) | relative viability ([1]; first compound 0.6325 µM) | relative viability ([1]; first compound 2 µM) | relative viability ([2]; first compound 0.02 µM) | relative viability ([2]; first compound 0.06325 µM) | relative viability ([2]; first compound 0.6325 µM) | relative viability ([2]; first compound 2 µM) | relative viability ([3]; first compound 0.01 µM) | relative viability ([3]; first compound 0.03162 µM) | relative viability ([3]; first compound 0.3162 µM) | relative viability ([3]; first compound 1 µM) | relative viability ([4]; first compound 0.01 µM) | relative viability ([4]; first compound 0.03162 µM) | relative viability ([4]; first compound 0.3162 µM) | relative viability ([4]; first compound 1 µM) | relative viability ([5]; first compound 0.02 µM) | relative viability ([5]; first compound 0.06325 µM) | relative viability ([5]; first compound 0.6325 µM) | relative viability ([5]; first compound 2 µM)
1 | NCI-H1755 | 1.01 | 0.906 | 0.86 | 0.339 | 1.04 | 1 | 0.93 | 0.537 | 0.411 | 0.636 | 0.469 | 0.346 | 0.405 | 0.404 | 0.353 | 0.374 | 0.472 | 0.397 | 0.396 | 0.329
2 | NCI-H661 | 0.771 | 0.738 | 0.616 | 0.258 | 0.461 | 0.444 | 0.447 | 0.27 | 0.93 | 0.884 | 0.968 | 0.947 | 0.986 | 0.91 | 0.876 | 0.877 | 0.956 | 0.982 | 0.9 | 0.711
3 | NCI-H1944 | – | – | – | – | 0.969 | 0.753 | 0.597 | 0.402 | 0.729 | 0.806 | 0.685 | 0.676 | 0.612 | 0.575 | 0.603 | 0.576 | 0.649 | 0.487 | 0.469 | 0.287
4 | NCI-H23 | 0.936 | 1.12 | 0.768 | 0.445 | 1.17 | 1.45 | 0.952 | 0.496 | 0.214 | 0.215 | 0.19 | 0.211 | 0.713 | 0.559 | 0.651 | 0.64 | 0.618 | 0.757 | 0.5 | 0.374
5 | NCI-H1648 | – | – | – | – | – | – | – | – | – | – | – | – | 0.719 | 0.651 | 0.691 | 0.786 | 0.72 | 0.802 | 0.614 | 0.41
6 | NCI-H522 | – | – | – | – | – | – | – | – | 1.28 | 1.31 | 1.17 | 1.19 | 1.04 | 0.964 | 0.887 | 1 | 1.08 | 1.1 | 0.796 | 0.481
7 | HCC-366 | 1.08 | 1.01 | 0.691 | 0.189 | 1.04 | 1 | 0.665 | 0.162 | – | – | – | – | 0.154 | 0.166 | 0.302 | 0.266 | 0.172 | 0.195 | 0.248 | 0.122
8 | EBC-1 | 0.474 | 0.603 | 0.414 | 0.255 | 0.237 | 0.208 | 0.237 | 0.204 | – | – | – | – | – | – | – | – | – | – | – | –
9 | ChaGo-K-1 | 1.16 | 1.1 | 1.09 | 0.828 | – | – | – | – | 0.668 | 0.661 | 0.541 | 0.679 | 0.267 | 0.268 | 0.265 | 0.265 | 0.265 | 0.268 | 0.231 | 0.237
10 | NCI-H1299 | 1.02 | 1.04 | 1.07 | 1.05 | 1.02 | 1.01 | 1 | 1.01 | – | – | – | – | – | – | – | – | – | – | – | –
11 | NCI-H1623 | – | – | – | – | – | – | – | – | 0.499 | 0.526 | 0.492 | 0.458 | – | – | – | – | – | – | – | –
12 | NCI-H441 | 0.702 | 0.373 | 0.41 | 0.338 | – | – | – | – | 0.31 | 0.409 | 0.271 | 0.262 | 0.256 | 0.238 | 0.255 | 0.249 | 0.279 | 0.276 | 0.256 | 0.202
13 | LCLC-103H | 1.02 | 0.982 | 0.779 | 0.775 | – | – | – | – | 0.983 | 1.06 | 0.975 | 0.89 | 0.441 | 0.435 | 0.485 | 0.442 | 0.468 | 0.419 | 0.475 | 0.428
14 | NCI-H1793 | – | – | – | – | 0.693 | 0.963 | 0.61 | 0.336 | 0.186 | 0.178 | 0.164 | 0.174 | 0.908 | 0.863 | 0.844 | 0.783 | 0.828 | 0.754 | 0.522 | 0.276
15 | IA-LM | 0.791 | 0.721 | 0.732 | 0.308 | 0.926 | 0.79 | 0.678 | 0.364 | – | – | – | – | – | – | – | – | – | – | – | –
16 | A549 | – | – | – | – | 0.93 | 0.906 | 0.595 | 0.606 | – | – | – | – | – | – | – | – | – | – | – | –
17 | NCI-H2170 | – | – | – | – | 0.285 | 0.306 | 0.226 | 0.245 | 0.697 | 0.822 | 0.616 | 0.557 | 0.246 | 0.264 | 0.286 | 0.24 | 0.268 | 0.273 | 0.249 | 0.228
18 | NCI-H727 | 0.992 | 0.941 | 0.784 | 0.609 | 0.876 | 0.825 | 0.781 | 0.654 | 0.328 | 0.306 | 0.337 | 0.345 | – | – | – | – | – | – | – | –
19 | Calu-6 | 1.09 | 0.933 | 0.925 | 0.894 | 1.15 | 1.19 | 0.898 | 0.911 | – | – | – | – | – | – | – | – | – | – | – | –
20 | HCC-78 | 0.458 | 0.384 | 0.294 | 0.2 | 0.685 | 0.749 | 0.594 | 0.181 | – | – | – | – | 0.934 | 0.924 | 0.909 | 0.934 | 0.894 | 0.911 | 0.861 | 0.893
21 | NCI-H358 | – | – | – | – | 0.49 | 0.503 | 0.311 | 0.29 | 0.0868 | 0.829 | 0.234 | 0.318 | 0.169 | 0.154 | 0.186 | 0.162 | 0.172 | 0.165 | 0.161 | 0.133
22 | SK-MES-1 | – | – | – | – | 0.468 | 0.41 | 0.389 | 0.27 | 0.901 | 0.756 | 0.751 | 0.751 | 0.881 | 0.938 | 0.899 | 0.816 | 0.941 | 0.948 | 0.879 | 0.391
23 | NCI-H2342 | – | – | – | – | – | – | – | – | 0.751 | 0.655 | 0.77 | 0.677 | 0.663 | 0.782 | 0.675 | 0.738 | 0.695 | 0.782 | 0.677 | 0.528

Reference: the supplement of paper PMC10307832
